# Measured values as given in patent US20260274810A1, “NOVEL MITOFUSIN INHIBITORS” (ALBERT EINSTEIN COLLEGE OF MEDICINE, priority 2023, published 2026).
# System: U2OS cells
# Experiment: Mitochondrial fusion in U2OS cells
# Format: cell-based
# Experimental: Measurement of mitochondrial aspect ratio (Mito AR). Images that depict stained mitochondria with mitotracker green were analyzed using FIJI We measured for each mitochondrion its length and width. Then, we divided the length by the width for each mitochondrion to get its mitochondrial aspect ratio. >200 mitochondria were measured per treatment.
compound,measurement,value
Cc1cccc(NC(C)c2cc(Cl)ccc2O)c1C (stereo not shown) [MFI8],mitochondrial fusion,inhibited mitochondrial fusion in U2OS cells
